The target in experiment [1] is T1, TRH1 (h) (antagonist effect) (Homo sapiens, UniProt P34981).
T1 construct: purchased CEREP
Briefly: CEREP screen, antagonist effect. The format is biochemical. Conditions: % of control. As to the method:
(§1) SB-334867 was evaluated in a selectivity screen performed at CEREP (Paris, France). The screen consisted of binding assays on a panel of 79 target receptors. The specific binding (SB) of a radioligand to each target receptor was defined as the difference between the total binding and the nonspecific binding determined in the presence of a cold competitor in excess. […] Details on the CEREP screen are available from www.cerep.fr.

A further experiment has as its system K+V channel. Briefly: CEREP radioligand binding. Conditions: % of control specific binding. As to the method: as §1
For another experiment, the target named is T2, MT1 (h) (Homo sapiens, UniProt P48039).
T2 construct: purchased CEREP
Briefly: CEREP radioligand binding. Conditions: % of control specific binding. As to the method: as §1

A further experiment deals with T3, D1 (h) (Homo sapiens, UniProt P21728).
T3 construct: purchased CEREP
Briefly: CEREP radioligand binding. Conditions: % of control specific binding. As to the method: as §1

Another experiment addresses T4, kappa (KOP) (guinea-pig) (Cavia porcellus, UniProt P41144).
T4 construct: purchased CEREP
Briefly: CEREP radioligand binding. Particulars: % of control specific binding. As to the method:
as §1

A further experiment has as its target T5, 5-HT5A (h) (Homo sapiens, UniProt P47898).
T5 construct: purchased CEREP
Briefly: CEREP radioligand binding. Particulars: % of control specific binding. As to the method: as §1

Another experiment deals with T6, Y2 (h) (Homo sapiens, UniProt P49146).
T6 construct: purchased CEREP
Briefly: CEREP radioligand binding. Conditions: % of control specific binding. As to the method: as §1

In a further experiment the target is T7, CB1 (h) (Homo sapiens, UniProt P21554).
T7 construct: purchased CEREP
Briefly: CEREP radioligand binding. Conditions: % of control specific binding. As to the method: as §1

Another experiment deals with T8, M3 (h) (Homo sapiens, UniProt P20309).
T8 construct: purchased CEREP
Briefly: CEREP radioligand binding. Particulars: % of control specific binding. As to the method: as §1

Another experiment concerns the target T9, GAL1 (h) (Homo sapiens, UniProt P47211).
T9 construct: purchased CEREP
Briefly: CEREP radioligand binding. Conditions: % of control specific binding. As to the method:
as §1

In the next experiment the target is T10, ORL1 (h) (NOP) (Homo sapiens, UniProt P41146).
T10 construct: purchased CEREP
Briefly: CEREP radioligand binding. Conditions: % of control specific binding. As to the method: as §1

The target of another experiment is T11, BZD (peripheral) (Rattus norvegicus, UniProt P16257).
T11 construct: purchased CEREP
Briefly: CEREP radioligand binding. Particulars: % of control specific binding. As to the method: as §1

Another experiment deals with T12, ETA (h) (Homo sapiens, UniProt P25101).
T12 construct: purchased CEREP
Briefly: CEREP radioligand binding. Conditions: % of control specific binding. As to the method:
as §1

The next experiment relates to ML2 (MT3). Briefly: CEREP radioligand binding. As to the method:
as §1

A further experiment has as its target T13, beta 1 (h) (Homo sapiens, UniProt P08588).
T13 construct: purchased CEREP
Briefly: CEREP radioligand binding. Conditions: % of control specific binding. As to the method: as §1

Another experiment concerns the target T14, 5-HT6 (h) (Homo sapiens, UniProt P50406).
T14 construct: purchased CEREP
Briefly: CEREP radioligand binding. Conditions: % of control specific binding. As to the method: as §1

The target in the next experiment is T15, DA transporter (h) (Homo sapiens, UniProt Q01959).
T15 construct: purchased CEREP
Briefly: CEREP radioligand binding. Conditions: % of control specific binding. As to the method:
as §1

Another experiment addresses T16, TRH1 (h) (Homo sapiens, UniProt P34981).
T16 construct: purchased CEREP
Briefly: CEREP radioligand binding. Particulars: % of control specific binding. As to the method: as §1

The next experiment addresses T17, MT2 (h) (agonist site) (Homo sapiens, UniProt P49286).
T17 construct: purchased CEREP
Briefly: CEREP radioligand binding. Conditions: % of control specific binding. As to the method: as §1

The target of another experiment is T18, 5-HT transporter (h) (Homo sapiens, UniProt P31645).
T18 construct: purchased CEREP
Briefly: CEREP radioligand binding. Conditions: % of control specific binding. As to the method: as §1

Another experiment has as its target T19, 5-HT2A (h) (Homo sapiens, UniProt P28223).
T19 construct: purchased CEREP
Briefly: CEREP radioligand binding. Conditions: % of control specific binding. As to the method: as §1

In another experiment the target is T20, NE transporter (h) (Homo sapiens, UniProt P23975).
T20 construct: purchased CEREP
Briefly: CEREP radioligand binding. Particulars: % of control specific binding. As to the method:
as §1

The test system of another experiment is sigma (non-selective). Briefly: CEREP radioligand binding. Conditions: % of control specific binding. As to the method:
as §1

For another experiment, the target named is T21, VIP1 (h) (VPAC1) (Homo sapiens, UniProt P32241).
T21 construct: purchased CEREP
Briefly: CEREP radioligand binding. Particulars: % of control specific binding. As to the method: as §1

The next experiment has as its target T22, H2 (h) (Homo sapiens, UniProt P25021).
T22 construct: purchased CEREP
Briefly: CEREP radioligand binding. Conditions: % of control specific binding. As to the method:
as §1

Another experiment concerns the target T23, M5 (h) (Homo sapiens, UniProt P08912).
T23 construct: purchased CEREP
Briefly: CEREP radioligand binding. Particulars: % of control specific binding. As to the method:
as §1

Another experiment concerns the target T24, CXCR2 (h) (IL-8B) (Homo sapiens, UniProt P25025).
T24 construct: purchased CEREP
Briefly: CEREP radioligand binding. Conditions: % of control specific binding. As to the method: as §1

Another experiment relates to Na+ channel (site 2). Briefly: CEREP radioligand binding. Conditions: % of control specific binding. As to the method: as §1
Another experiment has as its target T25, CCKA (h) (CCK1) (Homo sapiens, UniProt P32238).
T25 construct: purchased CEREP
Briefly: CEREP radioligand binding. Conditions: % of control specific binding. As to the method: as §1

For another experiment, the target named is T26, H1 (h) (Homo sapiens, UniProt P35367).
T26 construct: purchased CEREP
Briefly: CEREP radioligand binding. Conditions: % of control specific binding. As to the method: as §1

Another experiment deals with T27, D5 (h) (Homo sapiens, UniProt P21918).
T27 construct: purchased CEREP
Briefly: CEREP radioligand binding. Conditions: % of control specific binding. As to the method: as §1

The subject of a further experiment is Cl- channel. Briefly: CEREP radioligand binding. Particulars: % of control specific binding. As to the method:
as §1

A further experiment has as its target T28, AT1 (h) (Homo sapiens, UniProt P30556).
T28 construct: purchased CEREP
Briefly: CEREP radioligand binding. Particulars: % of control specific binding. As to the method:
as §1

Another experiment concerns PDGF. Briefly: CEREP radioligand binding. Conditions: % of control specific binding. As to the method:
as §1

A further experiment addresses T29, AT2 (h) (Homo sapiens, UniProt P50052).
T29 construct: purchased CEREP
Briefly: CEREP radioligand binding. Particulars: % of control specific binding. As to the method:
as §1

The target of experiment [2] is T30, mu (h) (MOP) (agonist site) (Homo sapiens, UniProt P35372).
T30 construct: purchased CEREP
Briefly: CEREP radioligand binding. Particulars: % of control specific binding. As to the method: as §1

A further experiment has as its target T31, B2 (h) (Homo sapiens, UniProt P30411).
T31 construct: purchased CEREP
Briefly: CEREP radioligand binding. Conditions: % of control specific binding. As to the method:
as §1

A further experiment deals with T32, A3 (h) (Homo sapiens, UniProt P0DMS8).
T32 construct: purchased CEREP
Briefly: CEREP radioligand binding. As to the method:
as §1

Another experiment concerns the target T33, D2S (h) (Homo sapiens, UniProt P14416).
T33 construct: purchased CEREP
Briefly: CEREP radioligand binding. Conditions: % of control specific binding. As to the method: as §1

Another experiment addresses T34, D4.4 (h) (Homo sapiens, UniProt P21917).
T34 construct: purchased CEREP
Briefly: CEREP radioligand binding. Conditions: % of control specific binding. As to the method: as §1

Another experiment concerns the target hHCRTR1. Set-up: method as in PMID 9821961. Particulars: 37°C; cited from earlier work.

The values that follow come from article PMC3388080 (PLoS ONE, 2012).

T32 sequence (P0DMS8 whole entry): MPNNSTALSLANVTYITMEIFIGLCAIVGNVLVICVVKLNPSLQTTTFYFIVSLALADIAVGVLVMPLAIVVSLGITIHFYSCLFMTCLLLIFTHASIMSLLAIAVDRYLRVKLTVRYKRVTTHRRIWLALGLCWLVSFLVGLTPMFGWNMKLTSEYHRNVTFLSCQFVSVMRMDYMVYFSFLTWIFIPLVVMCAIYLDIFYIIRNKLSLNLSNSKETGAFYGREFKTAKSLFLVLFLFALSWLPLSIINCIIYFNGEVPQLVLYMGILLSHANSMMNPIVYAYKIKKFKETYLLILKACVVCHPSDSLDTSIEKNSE
T21 sequence (P32241 31-457): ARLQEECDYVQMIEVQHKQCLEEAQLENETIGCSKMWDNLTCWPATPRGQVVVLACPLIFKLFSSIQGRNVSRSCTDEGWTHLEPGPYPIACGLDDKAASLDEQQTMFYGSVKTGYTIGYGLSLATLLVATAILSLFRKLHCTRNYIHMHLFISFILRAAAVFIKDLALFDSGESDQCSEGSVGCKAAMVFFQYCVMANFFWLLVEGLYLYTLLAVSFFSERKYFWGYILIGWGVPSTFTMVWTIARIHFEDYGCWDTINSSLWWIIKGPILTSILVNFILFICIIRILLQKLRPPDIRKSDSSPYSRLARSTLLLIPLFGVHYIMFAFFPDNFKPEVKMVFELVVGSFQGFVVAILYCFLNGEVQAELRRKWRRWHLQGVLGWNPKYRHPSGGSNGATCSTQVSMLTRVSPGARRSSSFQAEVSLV
T30 sequence (P35372 whole entry): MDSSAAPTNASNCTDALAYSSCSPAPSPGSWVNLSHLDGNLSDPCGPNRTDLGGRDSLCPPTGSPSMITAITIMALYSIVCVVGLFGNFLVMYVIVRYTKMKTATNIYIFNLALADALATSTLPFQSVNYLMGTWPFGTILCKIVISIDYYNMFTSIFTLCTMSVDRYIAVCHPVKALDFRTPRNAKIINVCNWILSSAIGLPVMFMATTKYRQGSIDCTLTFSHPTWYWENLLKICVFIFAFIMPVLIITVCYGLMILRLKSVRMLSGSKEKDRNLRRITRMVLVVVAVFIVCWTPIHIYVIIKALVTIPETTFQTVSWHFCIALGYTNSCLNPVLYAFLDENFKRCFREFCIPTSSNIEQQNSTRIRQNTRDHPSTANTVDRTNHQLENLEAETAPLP
T24 sequence (P25025 whole entry): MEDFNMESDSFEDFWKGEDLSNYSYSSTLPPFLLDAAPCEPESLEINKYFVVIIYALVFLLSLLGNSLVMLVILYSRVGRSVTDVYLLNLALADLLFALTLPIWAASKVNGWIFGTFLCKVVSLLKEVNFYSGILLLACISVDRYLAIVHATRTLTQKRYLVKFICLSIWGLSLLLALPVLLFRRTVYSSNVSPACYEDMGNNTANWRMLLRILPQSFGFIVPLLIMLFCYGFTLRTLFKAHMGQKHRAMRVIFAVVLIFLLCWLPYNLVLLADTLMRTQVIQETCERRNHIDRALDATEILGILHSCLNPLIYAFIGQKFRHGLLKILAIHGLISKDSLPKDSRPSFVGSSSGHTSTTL
T5 sequence (P47898 whole entry): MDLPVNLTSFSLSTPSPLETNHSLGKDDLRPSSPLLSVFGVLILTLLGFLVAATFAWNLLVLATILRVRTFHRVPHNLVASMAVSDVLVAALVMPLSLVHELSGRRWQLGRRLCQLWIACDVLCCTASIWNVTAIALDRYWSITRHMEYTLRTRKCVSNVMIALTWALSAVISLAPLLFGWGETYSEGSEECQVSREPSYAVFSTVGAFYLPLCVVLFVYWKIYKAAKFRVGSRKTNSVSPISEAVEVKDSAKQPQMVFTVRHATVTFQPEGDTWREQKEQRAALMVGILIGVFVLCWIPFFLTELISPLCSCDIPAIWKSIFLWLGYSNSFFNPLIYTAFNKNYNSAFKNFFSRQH
T15 sequence (Q01959 whole entry): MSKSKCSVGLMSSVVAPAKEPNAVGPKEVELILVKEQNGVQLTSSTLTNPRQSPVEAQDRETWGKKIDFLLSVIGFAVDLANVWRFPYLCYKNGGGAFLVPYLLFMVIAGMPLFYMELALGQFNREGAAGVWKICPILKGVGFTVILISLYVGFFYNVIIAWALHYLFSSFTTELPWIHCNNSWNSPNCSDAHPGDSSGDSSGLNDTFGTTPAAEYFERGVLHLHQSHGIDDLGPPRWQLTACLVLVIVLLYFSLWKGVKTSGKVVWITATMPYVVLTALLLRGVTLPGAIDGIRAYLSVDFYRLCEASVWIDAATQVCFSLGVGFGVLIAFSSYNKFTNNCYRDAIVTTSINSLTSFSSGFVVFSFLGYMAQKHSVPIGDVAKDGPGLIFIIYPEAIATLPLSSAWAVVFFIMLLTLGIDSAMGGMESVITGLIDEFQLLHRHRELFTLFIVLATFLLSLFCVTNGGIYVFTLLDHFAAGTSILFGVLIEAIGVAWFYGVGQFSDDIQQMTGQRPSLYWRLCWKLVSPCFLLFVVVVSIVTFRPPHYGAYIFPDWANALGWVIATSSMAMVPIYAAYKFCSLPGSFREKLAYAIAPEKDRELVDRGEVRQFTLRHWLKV
T28 sequence (P30556 whole entry): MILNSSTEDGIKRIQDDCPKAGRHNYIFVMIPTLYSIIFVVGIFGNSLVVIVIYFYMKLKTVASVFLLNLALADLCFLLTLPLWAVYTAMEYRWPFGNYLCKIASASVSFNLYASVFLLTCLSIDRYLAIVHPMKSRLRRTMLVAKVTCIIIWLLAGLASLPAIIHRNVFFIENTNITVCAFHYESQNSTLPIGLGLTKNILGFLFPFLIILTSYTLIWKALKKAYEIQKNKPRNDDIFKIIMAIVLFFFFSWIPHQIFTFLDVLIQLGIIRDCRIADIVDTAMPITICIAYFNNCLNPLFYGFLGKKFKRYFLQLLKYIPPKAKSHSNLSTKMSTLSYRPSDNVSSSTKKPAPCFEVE
T26 sequence (P35367 whole entry): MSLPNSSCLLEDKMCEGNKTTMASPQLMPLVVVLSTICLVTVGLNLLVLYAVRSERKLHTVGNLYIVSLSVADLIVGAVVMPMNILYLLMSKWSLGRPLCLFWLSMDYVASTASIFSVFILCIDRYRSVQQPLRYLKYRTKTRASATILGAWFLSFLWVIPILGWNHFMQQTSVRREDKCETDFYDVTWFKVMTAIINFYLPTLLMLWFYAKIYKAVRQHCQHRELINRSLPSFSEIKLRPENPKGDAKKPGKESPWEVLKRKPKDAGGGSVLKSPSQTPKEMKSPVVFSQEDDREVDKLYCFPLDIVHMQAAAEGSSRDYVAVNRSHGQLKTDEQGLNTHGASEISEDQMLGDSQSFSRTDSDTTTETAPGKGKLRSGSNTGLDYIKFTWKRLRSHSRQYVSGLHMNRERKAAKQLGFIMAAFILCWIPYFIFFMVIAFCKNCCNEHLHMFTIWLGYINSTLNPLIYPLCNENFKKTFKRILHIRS
T19 sequence (P28223 whole entry): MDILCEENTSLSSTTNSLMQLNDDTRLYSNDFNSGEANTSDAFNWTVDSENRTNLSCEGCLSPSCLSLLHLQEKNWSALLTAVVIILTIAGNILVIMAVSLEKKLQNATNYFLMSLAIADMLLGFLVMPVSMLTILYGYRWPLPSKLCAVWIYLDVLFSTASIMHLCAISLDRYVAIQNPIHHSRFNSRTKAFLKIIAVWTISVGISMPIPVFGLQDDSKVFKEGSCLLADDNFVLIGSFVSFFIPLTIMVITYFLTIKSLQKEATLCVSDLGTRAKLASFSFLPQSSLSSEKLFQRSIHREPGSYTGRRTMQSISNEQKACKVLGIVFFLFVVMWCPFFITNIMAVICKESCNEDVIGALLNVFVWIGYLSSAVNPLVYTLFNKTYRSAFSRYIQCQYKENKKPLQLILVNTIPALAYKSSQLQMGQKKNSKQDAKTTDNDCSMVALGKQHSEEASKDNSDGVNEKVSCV
T22 sequence (P25021 whole entry): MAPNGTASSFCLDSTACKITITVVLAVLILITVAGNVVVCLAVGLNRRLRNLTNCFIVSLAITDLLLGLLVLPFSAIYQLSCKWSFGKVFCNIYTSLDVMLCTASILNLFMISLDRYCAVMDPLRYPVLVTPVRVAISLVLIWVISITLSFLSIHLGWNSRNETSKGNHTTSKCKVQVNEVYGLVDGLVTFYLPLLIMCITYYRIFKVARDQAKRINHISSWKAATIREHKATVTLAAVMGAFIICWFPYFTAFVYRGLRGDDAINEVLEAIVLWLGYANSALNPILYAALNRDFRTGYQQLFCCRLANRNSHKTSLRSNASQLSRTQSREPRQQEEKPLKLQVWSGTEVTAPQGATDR
T9 sequence (P47211 whole entry): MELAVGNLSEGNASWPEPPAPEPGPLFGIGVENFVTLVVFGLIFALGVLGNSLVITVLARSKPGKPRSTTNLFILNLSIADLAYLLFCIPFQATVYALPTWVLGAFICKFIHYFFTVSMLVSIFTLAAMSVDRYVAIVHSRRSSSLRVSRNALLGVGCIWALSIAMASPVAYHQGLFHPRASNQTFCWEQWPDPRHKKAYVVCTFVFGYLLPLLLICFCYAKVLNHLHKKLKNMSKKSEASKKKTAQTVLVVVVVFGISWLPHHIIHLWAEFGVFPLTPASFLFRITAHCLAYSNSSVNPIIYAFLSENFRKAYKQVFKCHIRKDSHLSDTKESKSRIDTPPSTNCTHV
T11 sequence (P16257 whole entry): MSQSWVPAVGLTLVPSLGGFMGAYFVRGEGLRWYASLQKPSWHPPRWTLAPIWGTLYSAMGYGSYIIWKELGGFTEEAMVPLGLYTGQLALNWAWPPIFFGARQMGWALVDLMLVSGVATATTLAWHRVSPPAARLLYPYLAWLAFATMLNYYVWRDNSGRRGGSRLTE

With `Cc1nc2ccc(NC(=O)Nc3ccnc4cccnc34)cc2o1.Cl` [SB-334867, 1-(2-methylbenzoxazol-6-yl)-3-[1], [5]naphthyridin-4-yl-urea hydrochloride], the “% Control (10 µM) Mean SB” value was determined as 78.5% in [1]; 108.1% with K+V channel; 102.4% at MT1 (h); 82.7% at D1 (h); 100.8% on kappa (KOP) (guinea-pig); 84.1% at 5-HT5A (h). Besides, the “% Control (10 µM) Mean SB” value at Y2 (h) turned out to be 113%; at CB1 (h), 104.1%; at M3 (h), 73.1%; at GAL1 (h) it was 118.5%; on ORL1 (h) (NOP) it was 102.9%; on BZD (peripheral), 109.3%. The “% Control (10 µM) Mean SB” value at ETA (h) was 97.3%; in the experiment on ML2 (MT3) (% of control specific binding), -1.6%; on beta 1 (h) it was 85.7%; on 5-HT6 (h), 102.9%; on DA transporter (h), 72.4%; at TRH1 (h), 118.5%. Also, the “% Control (10 µM) Mean SB” value was 98.6% at MT2 (h) (agonist site); 110.7% on 5-HT transporter (h); 89.5% at 5-HT2A (h); 49.4% on NE transporter (h); 98.6% in the experiment with sigma (non-selective); 101% on VIP1 (h) (VPAC1). For the same molecule, the “% Control (10 µM) Mean SB” value was 86.6% on H2 (h); 103.3% on M5 (h); 110.5% on CXCR2 (h) (IL-8B); 62.8% in the experiment on Na+ channel (site 2); 108.8% at CCKA (h) (CCK1); 100.3% at H1 (h). For the same molecule, the “% Control (10 µM) Mean SB” value at D5 (h) is on record as 118.6%; with Cl- channel it was 90.6%; at AT1 (h) it was 102.3%; in the experiment on PDGF, 102.6%; on AT2 (h), 114.4%; in experiment [2], 86.3%. The “% Control (10 µM) Mean SB” value was 97% at B2 (h), 37.5% at A3 (h) (% of control specific binding), 101.2% at D2S (h) and 95.9% on D4.4 (h). For the same molecule, the “displacement of specific binding” value with ML2 (MT3) (10 µM, MT3 (melatonin)) was determined as 102%; at A3 (h) (10 µM, A3), 63%.

The Ki is the equilibrium dissociation constant of an inhibitor or competing ligand from its target. With `CNC(=O)[C@@H](c1ccccc1)N1CCc2cc(OC)c(OC)cc2[C@@H]1CCc1ccc(C(F)(F)F)cc1` [almorexant, (2R)-2-[(1S)-6,7-Dimethoxy-1-[2-(4-trifluoromethyl-phenyl)-ethyl]-3,4-dihydro-1H-isoquinolin-2-yl]-N-methyl-2-phenyl-acetamide], at hHCRTR1, the Ki was 4.7 nM.
